Reference: PubChem BioAssay AID1963831 (Molecular Pharmacology Branch, DTP, NCI, 2024)

Tested on: 889142-216-R-J1-PDC complex spheroid viability
Assay: Anticancer human tumor 889142-216-R-J1-PDC patient-derived bladder carcinoma cell line growth inhibition [POLQ]
Settings: for IC50: curve of first compound; for viability, T/C: stronger effect = lower value
Method in brief: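 Complex spheroid viability model combining PDC tumour cells with endothelial (HUVEC) and MSC stromal cells. Novobiocin, ART-558 or RP6685 were tested singly and in combination with standard and investigational anticancer drugs. Each was titrated in half-log steps from near clinical Cmax, or from 10 microM where Cmax was unknown.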

[1] = second compound 0.0316 µM, first compound 0.0316 µM
[2] = second compound 0.0316 µM, first compound 0.1 µM
[3] = second compound 0.0316 µM, first compound 0.316 µM
[4] = second compound 0.0316 µM, first compound 1 µM
[5] = second compound 0.0316 µM, first compound 3.16 µM
[6] = second compound 0.0316 µM, first compound 10 µM
[7] = second compound 0.1 µM, first compound 0.0316 µM
[8] = second compound 0.1 µM, first compound 0.1 µM
[9] = second compound 0.1 µM, first compound 0.316 µM
[10] = second compound 0.1 µM, first compound 1 µM
[11] = second compound 0.1 µM, first compound 3.16 µM
[12] = second compound 0.1 µM, first compound 10 µM
[13] = second compound 0.316 µM, first compound 0.0316 µM
[14] = second compound 0.316 µM, first compound 0.1 µM
[15] = second compound 0.316 µM, first compound 0.316 µM
[16] = second compound 0.316 µM, first compound 1 µM
[17] = second compound 0.316 µM, first compound 3.16 µM
[18] = second compound 0.316 µM, first compound 10 µM
[19] = second compound 1 µM, first compound 0.0316 µM
[20] = second compound 1 µM, first compound 0.1 µM
[21] = second compound 1 µM, first compound 0.316 µM
[22] = second compound 1 µM, first compound 1 µM
[23] = second compound 1 µM, first compound 3.16 µM
[24] = second compound 1 µM, first compound 10 µM
[25] = second compound 3.16 µM, first compound 0.0316 µM
[26] = second compound 3.16 µM, first compound 0.1 µM
[27] = second compound 3.16 µM, first compound 0.316 µM
[28] = second compound 3.16 µM, first compound 1 µM
[29] = second compound 3.16 µM, first compound 3.16 µM
[30] = second compound 3.16 µM, first compound 10 µM
[31] = second compound 10 µM, first compound 0.0316 µM
[32] = second compound 10 µM, first compound 0.1 µM
[33] = second compound 10 µM, first compound 0.316 µM
[34] = second compound 10 µM, first compound 1 µM
[35] = second compound 10 µM, first compound 3.16 µM
[36] = second compound 10 µM, first compound 10 µM
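Further: spheroids exposed to compounds for seven days.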
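Wherever viability, T/C is given: 100% = DMSO vehicle control viability.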

## COc1ccc([C@@H](O)c2cc(-c3ncnc4cc(N5CCOCC5)ccc34)c(F)cc2Cl)nn1 + COC1C(OC(N)=O)C(O)C(Oc2ccc3c(O)c(NC(=O)c4ccc(O)c(CC=C(C)C)c4)c(=O)oc3c2C)OC1(C)C
Second compound 0.0316 µM
  IC50: 4.25 µM
Second compound 0.1 µM
  IC50: > 10 µM
Second compound 0.316 µM
  IC50: 6.29 µM
Second compound 1 µM
  IC50: 2.87 µM
Second compound 3.16 µM
  IC50: 3.64 µM
Second compound 10 µM
  IC50: 4.53 µM
[1]
  viability, T/C: 88.8%
[2]
  viability, T/C: 88.3%
[3]
  viability, T/C: 63.9%
[4]
  viability, T/C: 63%
[5]
  viability, T/C: 55.6%
[6]
  viability, T/C: 41.5%
[7]
  viability, T/C: 104%
[8]
  viability, T/C: 125%
[9]
  viability, T/C: 76.2%
[10]
  viability, T/C: 62.7%
[11]
  viability, T/C: 55.7%
[12]
  viability, T/C: 35.9%
[13]
  viability, T/C: 92.2%
[14]
  viability, T/C: 104%
[15]
  viability, T/C: 87%
[16]
  viability, T/C: 79.1%
[17]
  viability, T/C: 63.4%
[18]
  viability, T/C: 41.4%
[19]
  viability, T/C: 90.3%
[20]
  viability, T/C: 112%
[21]
  viability, T/C: 86.7%
[22]
  viability, T/C: 59.8%
[23]
  viability, T/C: 60.3%
[24]
  viability, T/C: 37.3%
[25]
  viability, T/C: 81.3%
[26]
  viability, T/C: 120%
[27]
  viability, T/C: 77.6%
[28]
  viability, T/C: 66.9%
[29]
  viability, T/C: 56.9%
[30]
  viability, T/C: 39.8%
[31]
  viability, T/C: 98.2%
[32]
  viability, T/C: 82.1%
[33]
  viability, T/C: 104%
[34]
  viability, T/C: 74.8%
[35]
  viability, T/C: 59.6%
[36]
  viability, T/C: 32.9%

## COc1cccc(OCCCN)c1-c1cc(Nc2cnc(C#N)cn2)n[nH]1 + Cc1cccc(N(C)C(=O)C2C(O)CCN2c2nc(C)cc(C(F)(F)F)c2C#N)c1
Second compound 0.0316 µM
  IC50: 0.0939 µM
Second compound 0.1 µM
  IC50: 0.083 µM
Second compound 0.316 µM
  IC50: 0.0292 µM
Second compound 1 µM
  IC50: 0.0356 µM
Second compound 3.16 µM
  IC50: 0.143 µM
Second compound 10 µM
  IC50: 0.0274 µM
Second compound 0.0316 µM, first compound 0.00316 µM
  viability, T/C: 94.4%
Second compound 0.0316 µM, first compound 0.01 µM
  viability, T/C: 65.8%
[1]
  viability, T/C: 53.7%
[2]
  viability, T/C: 52.1%
[3]
  viability, T/C: 49%
[4]
  viability, T/C: 45%
Second compound 0.1 µM, first compound 0.00316 µM
  viability, T/C: 93.2%
Second compound 0.1 µM, first compound 0.01 µM
  viability, T/C: 95.6%
[7]
  viability, T/C: 59.3%
[8]
  viability, T/C: 52.3%
[9]
  viability, T/C: 49.4%
[10]
  viability, T/C: 42.9%
Second compound 0.316 µM, first compound 0.00316 µM
  viability, T/C: 118%
Second compound 0.316 µM, first compound 0.01 µM
  viability, T/C: 62.3%
[13]
  viability, T/C: 48.2%
[14]
  viability, T/C: 50.6%
[15]
  viability, T/C: 50.5%
[16]
  viability, T/C: 39.7%
Second compound 1 µM, first compound 0.00316 µM
  viability, T/C: 110%
Second compound 1 µM, first compound 0.01 µM
  viability, T/C: 62%
[19]
  viability, T/C: 50.7%
[20]
  viability, T/C: 51.7%
[21]
  viability, T/C: 56.8%
[22]
  viability, T/C: 38.2%
Second compound 3.16 µM, first compound 0.00316 µM
  viability, T/C: 81%
Second compound 3.16 µM, first compound 0.01 µM
  viability, T/C: 73.6%
[25]
  viability, T/C: 63.8%
[26]
  viability, T/C: 46.2%
[27]
  viability, T/C: 49.8%
[28]
  viability, T/C: 51.8%
Second compound 10 µM, first compound 0.00316 µM
  viability, T/C: 74.8%
Second compound 10 µM, first compound 0.01 µM
  viability, T/C: 73.5%
[31]
  viability, T/C: 46.6%
[32]
  viability, T/C: 48.8%
[33]
  viability, T/C: 42.7%
[34]
  viability, T/C: 43.9%

## COc1cc2cc(C(=O)CCC(=O)O)sc2cc1OC + Cc1cccc(N(C)C(=O)C2C(O)CCN2c2nc(C)cc(C(F)(F)F)c2C#N)c1
Second compound 0.0316 µM
  IC50: > 10 µM
Second compound 0.1 µM
  IC50: > 10 µM
Second compound 0.316 µM
  IC50: > 10 µM
Second compound 1 µM
  IC50: > 10 µM
Second compound 3.16 µM
  IC50: > 10 µM
Second compound 10 µM
  IC50: > 10 µM
[1]
  viability, T/C: 85.5%
[2]
  viability, T/C: 127%
[3]
  viability, T/C: 89.6%
[4]
  viability, T/C: 99.1%
[5]
  viability, T/C: 104%
[6]
  viability, T/C: 76.6%
[7]
  viability, T/C: 76.5%
[8]
  viability, T/C: 101%
[9]
  viability, T/C: 92.7%
[10]
  viability, T/C: 115%
[11]
  viability, T/C: 104%
[12]
  viability, T/C: 90.6%
[13]
  viability, T/C: 109%
[14]
  viability, T/C: 92.6%
[15]
  viability, T/C: 72.3%
[16]
  viability, T/C: 104%
[17]
  viability, T/C: 132%
[18]
  viability, T/C: 74.5%
[19]
  viability, T/C: 100%
[20]
  viability, T/C: 114%
[21]
  viability, T/C: 97.9%
[22]
  viability, T/C: 96.9%
[23]
  viability, T/C: 102%
[24]
  viability, T/C: 66.4%
[25]
  viability, T/C: 96.8%
[26]
  viability, T/C: 85.8%
[27]
  viability, T/C: 89.7%
[28]
  viability, T/C: 94.4%
[29]
  viability, T/C: 104%
[30]
  viability, T/C: 78.9%
[31]
  viability, T/C: 108%
[32]
  viability, T/C: 88.5%
[33]
  viability, T/C: 78.5%
[34]
  viability, T/C: 80.1%
[35]
  viability, T/C: 72.3%
[36]
  viability, T/C: 65.6%
